Measurements from article PMC6915683, “Characterization of Maltase and Sucrase Inhibitory Constituents from Rhodiola crenulata” (Foods, 2019).
Entries after “also recorded” stand apart in the source; their conditions may differ. Where two headings read alike, the source gives them in different places.

Experiments:
sucrase [1] = assay: Sucrase inhibition kinetics (Lineweaver–Burk and Dixon plots); assay type: biochemical, Leuconostoc mesenteroides; conditions: for Ki / Ki’ sucrase (uncompetitive inhibition constant): Dixon plot; for Ki / mode of inhibition toward sucrase: sucrose substrate; for Ki: binding to sucrase, read-out: Ki sucrase (competitive inhibition constant); for mode of inhibition toward sucrase: Lineweaver–Burk / Dixon plots; for Ki’ sucrase (uncompetitive inhibition constant): binding to sucrase–sucrose complex
Experimental: Estimates of sucrase activity were obtained using the method outlined by […] et al. with slight modifications. Sucrose and sucrase derived from Leuconostoc mesenteroides were obtained from Sigma Chemical Co. (St. Louis, MO, USA). […] The mixtures were incubated at 37 °C for 60 min and then at 100 °C for a further 10 min to stop the reaction. The glucose concentrations released from the reaction mixtures were estimated via the glucose oxidase method (glucose assay kit, Sigma Chemical Co., St. Louis, MO, USA) using a VersaMax microplate reader (Molecular Devices Corporation, Sunnyvale, CA, USA) at an absorbance wavelength of 540 nm. […] Kinetics assays were conducted using substrates of various concentrations with and without inhibitors. Maltose was used as a substrate for maltase, where the initial velocity was expressed as the rate of absorbance at 540 nm per min. Sucrose was used as a substrate for sucrase, where the initial velocity was expressed as the rate of absorbance at 540 nm per 18 min. Dixon plot analysis was used to determine the competitive inhibition constant (Ki) and uncompetitive inhibition constant (Ki'). Ki was used as the equilibrium constant for the inhibition of binding to maltase and sucrase, whereas Ki' was used as the equilibrium constant for the inhibition of binding to maltase-maltose and sucrase-sucrose complexes.

α-glucosidase = system: α-glucosidase; design: method as in doi:10.1016/j.foodres.2014.01.029; conditions: cited from earlier work; for Ki / Ki’ α-glucosidase: previous results
maltase [2] = biological target: T1, maltase (Saccharomyces cerevisiae, UniProt P53341); assay: Maltase inhibitory activity assay (maltose substrate, glucose oxidase method); assay type: biochemical; conditions: for inhibition at 10 µM: read-out: maltase inhibition
T1 construct: purchased Sigma Chemical Co. (St. Louis, MO, USA)
T1 sequence (P53341 whole entry): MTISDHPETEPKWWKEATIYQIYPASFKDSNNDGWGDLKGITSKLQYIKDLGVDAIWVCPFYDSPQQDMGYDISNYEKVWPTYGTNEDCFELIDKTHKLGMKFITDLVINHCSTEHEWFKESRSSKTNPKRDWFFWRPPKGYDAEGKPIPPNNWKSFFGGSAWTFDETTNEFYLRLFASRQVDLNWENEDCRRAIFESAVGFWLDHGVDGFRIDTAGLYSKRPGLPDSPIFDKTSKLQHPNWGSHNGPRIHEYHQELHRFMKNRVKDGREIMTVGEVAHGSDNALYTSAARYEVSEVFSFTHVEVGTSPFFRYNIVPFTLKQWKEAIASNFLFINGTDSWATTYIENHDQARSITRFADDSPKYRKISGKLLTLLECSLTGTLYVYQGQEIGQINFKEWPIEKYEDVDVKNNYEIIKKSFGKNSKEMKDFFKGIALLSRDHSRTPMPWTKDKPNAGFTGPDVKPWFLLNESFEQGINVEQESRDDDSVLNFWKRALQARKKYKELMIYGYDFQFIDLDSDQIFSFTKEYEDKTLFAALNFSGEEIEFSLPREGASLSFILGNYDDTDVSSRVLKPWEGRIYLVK
Experimental: (§1) Maltase activity was characterized using the methods outlined by Adisakwattana et al. with slight modifications. Maltose and maltase derived from Saccharomyces cerevisiae (S. cerevisiae) were obtained from Sigma Chemical Co. (St. Louis, MO, USA). A reaction mixture was formulated from 30 μL of maltose (86.3 mM) with 20 μL of maltase (0.33 units/mL) and 50 μL of phosphate buffer (100 mM, pH 7.0). The mixture was incubated at 37 °C for 10 min and then at 100 °C for a further 10 min to stop the reaction. The glucose concentrations released by the reaction mixture were determined via the glucose oxidase method (glucose assay kit, Sigma Chemical Co., St. Louis, MO, USA) using a VersaMax microplate reader (Molecular Devices Corporation, Sunnyvale, CA, USA) at an absorbance wavelength of 540 nm.
All of the samples were assessed in terms of maltase inhibitory activity under a range of concentrations (0–30 μM). Maltase inhibitory activity was evaluated by dissolving the samples directly in phosphate buffer solution (100 mM, pH 7.0). Note that each sample was assayed in triplicate. Inhibitory activity was estimated in terms of IC50 values based on percent inhibition, as follows:percent inhibition (%) = [(Awithout sample − Awith sample)] × 100%/Awithout sample(1)

maltase [3] = biological target: T1, maltase; assay: Maltase inhibition kinetics (Lineweaver–Burk and Dixon plots); assay type: biochemical; conditions: for Ki’ maltase (uncompetitive inhibition constant): binding to maltase–maltose complex; for mode of inhibition toward maltase: Lineweaver–Burk / Dixon plots
Experimental: as §1
Kinetics assays were conducted using substrates of various concentrations with and without inhibitors. Maltose was used as a substrate for maltase, where the initial velocity was expressed as the rate of absorbance at 540 nm per min. Sucrose was used as a substrate for sucrase, where the initial velocity was expressed as the rate of absorbance at 540 nm per 18 min. Dixon plot analysis was used to determine the competitive inhibition constant (Ki) and uncompetitive inhibition constant (Ki’). Ki was used as the equilibrium constant for the inhibition of binding to maltase and sucrase, whereas Ki’ was used as the equilibrium constant for the inhibition of binding to maltase–maltose and sucrase–sucrose complexes. The Ki and Ki’ values of the maltase inhibitors were derived from Dixon plots in accordance with the methods described by Cornish-Bowden.

sucrase [4] = assay: Sucrase inhibitory activity assay (sucrose substrate, glucose oxidase method); assay type: biochemical, Leuconostoc mesenteroides; conditions: for IC50: L. mesenteroides sucrase, sucrose substrate, pH 7.0, 37 °C, mean ± SD; for sucrase inhibition: at a concentration of 20 µM
Experimental: Estimates of sucrase activity were obtained using the method outlined by […] et al. with slight modifications. Sucrose and sucrase derived from Leuconostoc mesenteroides were obtained from Sigma Chemical Co. (St. Louis, MO, USA). […] The mixtures were incubated at 37 °C for 60 min and then at 100 °C for a further 10 min to stop the reaction. The glucose concentrations released from the reaction mixtures were estimated via the glucose oxidase method (glucose assay kit, Sigma Chemical Co., St. Louis, MO, USA) using a VersaMax microplate reader (Molecular Devices Corporation, Sunnyvale, CA, USA) at an absorbance wavelength of 540 nm. […] All samples were assessed in terms of sucrase inhibitory activity under a range of concentrations (0-50 μM).

rat maltase [5] = biological target: rat maltase; design: method as in PMID 28914528; conditions: cited from earlier work
[6] = design: method as in PMID 18756586; conditions: daily consumption for three years, compared to control group not consuming acarbose; cited from earlier work
rat sucrase = biological target: rat sucrase; design: method as in PMID 28914528; conditions: cited from earlier work
sucrose in rats = system: sucrose in rats; design: method as in PMID 20629879; conditions: read-out: IC50 against sucrose in rats; cited from earlier work
maltase [7] = system: maltase; design: method as in PMID 19772492; conditions: kinetic analysis; cited from earlier work
sucrase [8] = system: sucrase; design: method as in PMID 21765605; conditions: kinetics analysis; cited from earlier work
maltase [9] = system: maltase; design: method as in PMID 32218677; conditions: maltose substrate, cited from earlier work
sucrase [10] = system: sucrase; design: method as in PMID 19772492; conditions: cited from earlier work
maltase [11] = biological target: maltase; design: method as in PMID 15826043; conditions: isolated from Siraitia grosvenori; read-out: IC50 maltase inhibitory activity; cited from earlier work
rat maltase [12] = biological target: rat maltase; design: method as in doi:10.1016/j.foodchem.2010.03.088; conditions: read-out: IC50 against rat maltase; cited from earlier work
rat sucrose = system: rat sucrose; design: method as in doi:10.1016/j.foodchem.2010.03.088; conditions: read-out: IC50 against rat sucrose; cited from earlier work
sucrase [13] = system: sucrase; design: method as in PMID 15895684; conditions: sucrose substrate, cited from earlier work
[14] = S. cerevisiae maltase, maltose substrate, pH 7.0, 37 °C, mean ± SD, triplicate, read-out: IC50 Maltase

SMILES: O=C(OC1Cc2c(O)cc(O)c(C3c4c(O)cc(O)cc4OC(c4ccc(O)c(O)c4)C3O)c2OC1c1ccc(O)c(O)c1)c1cc(O)c(O)c(O)c1 (stereo not drawn) [B2-3’-O-gallate, epicatechin-(4β,8)-epicatechingallate]
- Ki (sucrase [1]): 6.05 ± 0.04 µM
- mode of inhibition toward sucrase (sucrase [1]): mixed-type inhibition; also recorded: mixed-competitive inhibitors
- mode of inhibition of α-glucosidase (α-glucosidase): mixed-competitive inhibitors
- Ki (α-glucosidase): 0.3 ± 0.03 µM
- Ki’ α-glucosidase (α-glucosidase): 1.42 ± 0.01 µM
- IC50 (maltase [2]; [14]): 1.73 ± 1.37 µM
- inhibition at 10 µM (maltase [2]): 90.7%
- Ki (maltase [3]; Dixon plot, maltose substrate, binding to maltase, read-out: Ki maltase (competitive inhibition constant)): 1.99 ± 0.02 µM
- Ki’ maltase (uncompetitive inhibition constant) (maltase [3]; Dixon plot): 3.73 ± 0.08 µM
- mode of inhibition toward maltase (maltase [3]; maltose substrate): mixed-type inhibition; also recorded: mixed-competitive inhibitors
- IC50 (sucrase [4]): 6.91 ± 3.41 µM
- sucrase inhibition (sucrase [4]): 84.6%

SMILES: Oc1cc(O)c2c(c1)O[C@H](c1ccc(O)c(O)c1)[C@H](O)C2 [EC, epicatechin]
- Ki (sucrase [1]): 13.7 ± 0.15 µM
- Ki’ sucrase (uncompetitive inhibition constant) (sucrase [1]): 21.36 ± 0.30 µM
- mode of inhibition toward sucrase (sucrase [1]): mixed-type inhibition; also recorded: mixed-competitive inhibitors
- IC50 (maltase [2]; [14]): 6.25 ± 1.84 µM
- inhibition at 10 µM (maltase [2]): 66.3%
- Ki’ maltase (uncompetitive inhibition constant) (maltase [3]; Dixon plot): 18.88 ± 0.22 µM
- mode of inhibition toward maltase (maltase [3]; maltose substrate): mixed-type inhibition; also recorded: mixed-competitive inhibitors
- Ki (maltase [3]; read-out: Ki maltase (competitive inhibition constant)): 7.02 ± 0.26 µM
- IC50 (sucrase [4]): 18.9 ± 3.66 µM
- sucrase inhibition (sucrase [4]): 51.4%

SMILES: O=C(O[C@@H]1Cc2c(O)cc(O)cc2O[C@@H]1c1ccc(O)c(O)c1)c1cc(O)c(O)c(O)c1 [ECG, epicatechin gallate]
- Ki (sucrase [1]): 8.58 ± 0.08 µM
- Ki’ sucrase (uncompetitive inhibition constant) (sucrase [1]): 15.74 ± 0.32 µM
- mode of inhibition toward sucrase (sucrase [1]): mixed-type inhibition; also recorded: mixed-competitive inhibitors
- mode of inhibition of α-glucosidase (α-glucosidase): mixed-competitive inhibitors
- Ki (α-glucosidase): 0.21 ± 0.04 µM
- Ki’ α-glucosidase (α-glucosidase): 2.34 ± 0.06 µM
- IC50 (maltase [2]): 3.64 ± 2.99 µM
- inhibition at 10 µM (maltase [2]): 87.7%
- Ki (maltase [3]): 3.14 ± 0.04 µM
- Ki’ maltase (uncompetitive inhibition constant) (maltase [3]; Dixon plot): 6.38 ± 0.04 µM
- mode of inhibition toward maltase (maltase [3]; maltose substrate): mixed-type inhibition; also recorded: mixed-competitive inhibitors
- IC50 (sucrase [4]): 18.3 ± 3.99 µM
- sucrase inhibition (sucrase [4]): 56.1%

SMILES: C[C@H]1O[C@H](O[C@H]2[C@H](O)[C@@H](O)[C@@H](O[C@H]3[C@H](O)[C@@H](O)C(O)O[C@@H]3CO)O[C@@H]2CO)[C@H](O)[C@@H](O)[C@@H]1N[C@H]1C=C(CO)[C@@H](O)[C@H](O)[C@H]1O (stereo partly shown) [acarbose]
- IC50 (rat maltase [5]): 0.42 ± 0.02 µM
- reduction of the risk of developing type 2 diabetes [6]: 6%
- IC50 (rat sucrase): 12.3 ± 0.6 µM

SMILES: Oc1cc(COCc2cc(O)c(O)c(Br)c2Br)c(Br)c(Br)c1O [bis (2,3-dibromo-4,5-dihydroxybenzyl)ether]
- IC50 (sucrose in rats): 1000 ± 30 µM

SMILES: O=C(O)/C=C/c1ccc(O)c(O)c1 [caffeic acid]
- mode of inhibition of maltase (maltase [7]): mixed-inhibition manner

SMILES: C[C@@H]1O[C@@H](OC[C@H]2O[C@@H](Oc3cc4c(O)cc(O)cc4[o+]c3-c3ccc(O)c(O)c3)[C@H](O)[C@@H](O)[C@@H]2O)[C@H](O)[C@H](O)[C@H]1O [cyanidin-3-rutinoside]
- mode of inhibition of sucrase (sucrase [8]): mixed-type manner

SMILES: O=C(O[C@@H]1Cc2c(O)cc(O)cc2O[C@@H]1c1cc(O)c(O)c(O)c1)c1cc(O)c(O)c(O)c1 [epigallocatechin gallate]
- mode of inhibition of maltase (maltase [9]; Lineweaver–Burk plot): competitive inhibitor
- Ki (maltase [9]; read-out: Ki maltase calculated from a Dixon plot): 5.93 ± 0.26 µM
- IC50 (rat maltase [5]): 14 ± 2 µM
- IC50 (rat sucrase): 950 ± 86 µM

SMILES: COc1cc(/C=C/C(=O)O)ccc1O [ferulic acid]
- mode of inhibition of maltase (maltase [7]): mixed-inhibition manner
- mode of inhibition of sucrase (sucrase [10]): mixed-type manner

SMILES: COc1ccc(/C=C/C(=O)O)cc1O [isoferulic acid]
- mode of inhibition of maltase (maltase [7]): mixed-inhibition manner
- mode of inhibition of sucrase (sucrase [10]): mixed-type manner

SMILES: C[C@H](CC[C@@H](O[C@@H]1O[C@H](CO[C@@H]2O[C@H](CO)[C@@H](O)[C@H](O)[C@H]2O)[C@@H](O)[C@H](O)[C@H]1O)C(C)(C)O)[C@H]1CC[C@@]2(C)[C@@H]3CC=C4[C@@H](CC[C@H](O[C@@H]5O[C@H](CO)[C@@H](O)[C@H](O)[C@H]5O)C4(C)C)[C@]3(C)[C@H](O)C[C@]12C [mogroside III]
- IC50 (maltase [11]): 1600 µM

SMILES: C[C@H](CC[C@@H](O[C@@H]1O[C@H](CO)[C@@H](O)[C@H](O)[C@H]1O[C@@H]1O[C@H](CO)[C@@H](O)[C@H](O)[C@H]1O)C(C)(C)O)[C@H]1CC[C@@]2(C)[C@H]3CC=C4[C@@H](CC[C@H](O[C@@H]5O[C@H](CO[C@@H]6O[C@H](CO)[C@@H](O)[C@H](O)[C@H]6O)[C@@H](O)[C@H](O)[C@H]5O)C4(C)C)[C@]3(C)[C@H](O)C[C@]12C [mogroside IV]
- IC50 (maltase [11]): 12000 µM

SMILES: O=c1c(O)c(-c2ccc(O)c(O)c2)oc2cc(O)cc(O)c12 [quercetin, reference compound]
- Ki (sucrase [1]): 14.05 ± 0.03 µM
- mode of inhibition toward sucrase (sucrase [1]): mixed-type inhibition; also recorded: mixed-competitive inhibitors
- mode of inhibition of α-glucosidase (α-glucosidase): mixed-competitive inhibitors
- inhibition at 10 µM (maltase [2]): 56.3%
- IC50 (rat maltase [12]): 4800 ± 400 µM
- Ki’ maltase (uncompetitive inhibition constant) (maltase [3]; Dixon plot): 14.97 ± 0.75 µM
- mode of inhibition toward maltase (maltase [3]; maltose substrate): mixed-type inhibition; also recorded: mixed-competitive inhibitors
- IC50 (sucrase [4]): 19 ± 2.53 µM
- sucrase inhibition (sucrase [4]): 51.7%
- IC50 (rat sucrose): 3500 ± 300 µM

SMILES: C[C@H](CC[C@@H](O[C@@H]1O[C@H](CO[C@@H]2O[C@H](CO)[C@@H](O)[C@H](O)[C@H]2O)[C@@H](O)[C@H](O)[C@H]1O[C@@H]1O[C@H](CO)[C@@H](O)[C@H](O)[C@H]1O)C(C)(C)O)[C@H]1CC[C@@]2(C)[C@@H]3CC=C4[C@@H](CC[C@H](O[C@@H]5O[C@H](CO)[C@@H](O)[C@H](O)[C@H]5O)C4(C)C)[C@]3(C)[C@H](O)C[C@]12C [siamenoside I]
- IC50 (maltase [11]): 10000 µM

SMILES: N[C@H]1C=C(CO)[C@@H](O)[C@H](O)[C@H]1O [valienamine]
- mode of inhibition of sucrase (sucrase [13]; Lineweaver–Burk plot): competitive inhibitor
- Ki (sucrase [13]; read-out: Ki sucrase calculated from a Dixon plot): 0.77 µM
